Data: ChEMBL document CHEMBL5247617, “4-Arylthiosemicarbazide derivatives - Pharmacokinetics, toxicity and anti-Toxoplasma gondii activity in vivo” (Eur J Med Chem, 2022)
Active and inactive are the calls of the source. The rule behind the calls is not given here.

What was measured:
[1] = Elimination half-life in BALB/c mouse serum at 50 mg/kg, po measured upto 60 mins by LC-MS/MS analysis; format: ADME, organism-based; conditions: in vivo, 1 h
[2] = tested on: Toxoplasma gondii; experiment: Antiparasitic activity against Toxoplasma gondii RH infected in BALB/c mouse assessed as decrease in number of bradyzoite gene copies in brain at 50 mg/kg, po administered every 24 hrs for 5 days starting from 24 hrs post infection by real-time qPCR analysis; format: functional, organism-based; conditions: time 5.0 day
[3] = tested on: Toxoplasma gondii; experiment: Antiparasitic activity against Toxoplasma gondii RH infected in BALB/c mouse assessed as reduction of bradyzoite gene copies in heart at 50 mg/kg, po administered every 12 and 24 hrs for 5 days starting from 24 hrs post infection by real-time qPCR analysis; format: functional, organism-based; conditions: time 5.0 day
[4] = Toxicity in BALB/c mouse assessed as increase in serum ALT level at 50 mg/kg, po administered for 5 days and measured after 14 days by ELISA method; format: organism-based; conditions: in vivo, 120 h, time 5 day
[5] = AUC in BALB/c mouse brain at 25 mg/kg, po measured upto 24 hrs by LC-MS/MS analysis; format: ADME, organism-based; set-up: time < 24 hrs, dose 25 mg/kg, route po
[6] = Toxicity in BALB/c mouse assessed as changes in serum AST level at 50 mg/kg, po administered for 5 days and measured on day 1 and day 14 by ELISA method; format: organism-based; conditions: in vivo, 120 h, time 5 day
[7] = Elimination half-life in BALB/c mouse brain at 50 mg/kg, po measured upto 24 hrs by LC-MS/MS analysis; format: ADME, organism-based; conditions: read-out: beta t1/2 (converted)
[8] = Oral bioavailability in BALB/c mouse serum at 50 mg/kg measured upto 60 mins by LC-MS/MS analysis; format: ADME, organism-based
[9] = tested on: Toxoplasma gondii; experiment: Antiparasitic activity against Toxoplasma gondii RH infected in BALB/c mouse assessed as survival rate at 50 mg/kg, po administered every 12 hrs for 5 days starting from 24 hrs post infection by Kaplan-Meier method; format: functional; conditions: 120 h, time 5 day
[10] = Tmax in BALB/c mouse serum at 25 mg/kg, po measured upto 60 mins by LC-MS/MS analysis; format: ADME, organism-based; conditions: in vivo, 1 h
[11] = Elimination half-life in BALB/c mouse serum at 25 mg/kg, po measured upto 60 mins by LC-MS/MS analysis; format: ADME, organism-based; conditions: in vivo, 1 h
[12] = Tmax in BALB/c mouse brain at 25 mg/kg, po measured upto 24 hrs by LC-MS/MS analysis; format: ADME, organism-based
[13] = tested on: L929; experiment: Cytotoxicity against mouse L929 cells assessed as reduction in cell viability incubated for 24 hrs by MTT assay; format: toxicity, cell-based; conditions: l929, 24 h
[14] = Tmax in BALB/c mouse serum at 50 mg/kg, po measured upto 60 mins by LC-MS/MS analysis; format: ADME, organism-based; conditions: in vivo, 1 h
[15] = tested on: Toxoplasma gondii; experiment: Antiparasitic activity against Toxoplasma gondii RH infected in BALB/c mouse assessed as reduction in number of bradyzoite gene copies in muscles at 25 mg/kg, po administered every 24 hrs for 5 days starting from 24 hrs post infection by real-time qPCR analysis; format: functional; conditions: time 5 day
[16] = Toxicity in BALB/c mouse assessed as changes in size of hepatocyte nuclei at 50 mg/kg, po administered for 5 days and measured after 14 days by hematoxylin-eosin staining based microscopic analysis; format: organism-based; conditions: hepatocytes, 120 h, time 5 day
[17] = Toxicity in BALB/c mouse assessed as changes in size of hepatocyte nuclei at 50 mg/kg, po administered for 5 days and measured after 1 day by hematoxylin-eosin staining based microscopic analysis; format: organism-based; conditions: hepatocytes, 120 h, time 5 day
[18] = AUC in BALB/c mouse serum at 50 mg/kg, po measured upto 60 mins by LC-MS/MS analysis; format: ADME, organism-based; set-up: time < 60 min, dose 50 mg/kg, route po; conditions: in vivo, 1 h
[19] = Toxicity in BALB/c mouse assessed as changes in creatinine level at 50 mg/kg, po administered for 5 days and measured on day 1 and day 14 by colorimetric assay; format: organism-based; conditions: in vivo, 120 h, time 5 day
[20] = Tmax in BALB/c mouse brain at 50 mg/kg, po measured upto 24 hrs by LC-MS/MS analysis; format: ADME, organism-based
[21] = Cmax in BALB/c mouse brain at 25 mg/kg, po measured upto 24 hrs by LC-MS/MS analysis; format: ADME, organism-based; set-up: time < 24 hrs, dose 25 mg/kg, route po; conditions: in vivo
[22] = tested on: Toxoplasma gondii; experiment: Antiparasitic activity against Toxoplasma gondii RH infected in human Hs27 cells assessed as parasitic growth inhibition incubated for 24 hrs followed by [5,6-3H] uracil addition and measured after 72 hrs by liquid scintillation counter analysis; format: functional, organism-based
[23] = Toxicity in BALB/c mouse assessed as changes in liver weight at 50 mg/kg, po administered for 5 days and measured after 14 days; format: organism-based; conditions: in vivo, 120 h, time 5 day
[24] = AUC in BALB/c mouse serum at 25 mg/kg, po measured upto 60 mins by LC-MS/MS analysis; format: ADME, organism-based; set-up: dose 25 mg/kg, time < 60 min, route po; conditions: in vivo, 1 h
[25] = Elimination half-life in BALB/c mouse brain at 25 mg/kg, po measured upto 24 hrs by LC-MS/MS analysis; format: ADME, organism-based; conditions: read-out: beta t1/2 (converted)
[26] = Cmax in BALB/c mouse serum at 50 mg/kg, po measured upto 60 mins by LC-MS/MS analysis; format: ADME, organism-based; set-up: time < 60 min, dose 50 mg/kg, route po; conditions: in vivo, 1 h
[27] = Toxicity in BALB/c mouse assessed as disseminated necrosis of hepatocytes at 50 mg/kg, po administered for 5 days and measured after 14 days by hematoxylin-eosin staining based microscopic analysis; format: organism-based; conditions: in vivo, 120 h, time 5 day
[28] = tested on: HS27; experiment: Cytotoxicity against human HS27 cells assessed as reduction in cell viability; format: toxicity, cell-based
[29] = Oral bioavailability in BALB/c mouse serum at 25 mg/kg measured upto 60 mins by LC-MS/MS analysis; format: ADME, organism-based
[30] = AUC in BALB/c mouse brain at 50 mg/kg, po measured upto 24 hrs by LC-MS/MS analysis; format: ADME, organism-based; set-up: dose 50 mg/kg, time < 24 hrs, route po
[31] = Toxicity in BALB/c mouse assessed as disseminated necrosis of hepatocytes at 50 mg/kg, po administered for 5 days and measured after 1 day by hematoxylin-eosin staining based microscopic analysis; format: organism-based; conditions: in vivo, 120 h, time 5 day
[32] = tested on: Toxoplasma gondii; experiment: Antiparasitic activity against Toxoplasma gondii RH infected in BALB/c mouse assessed as decrease in IFNgamma level in serum at 25 to 50 mg/kg, po administered for 5 days starting from 24 hrs post infection by ELISA method; format: functional, organism-based; conditions: dose 25-50 mg/kg, time 5.0 day
[33] = tested on: Toxoplasma gondii; experiment: Antiparasitic activity against Toxoplasma gondii DX infected in C3H/HeOuJ mouse assessed as prolongation of survival at 25 to 50 mg/kg, po administered for 5 days starting from 24 hrs post infection by Kaplan-Meier method; format: functional, organism-based; conditions: dose 25-50 mg/kg, time 5.0 day
[34] = tested on: Toxoplasma gondii; experiment: Antiparasitic activity against Toxoplasma gondii RH infected in BALB/c mouse assessed as prolongation of animal survival at 25 to 50 mg/kg, po administered for 5 days starting from 24 hrs post infection by Kaplan-Meier method; format: functional, organism-based; conditions: dose 25-50 mg/kg, time 5.0 day
[35] = Cmax in BALB/c mouse brain at 50 mg/kg, po measured upto 24 hrs by LC-MS/MS analysis; format: ADME, organism-based; set-up: time < 24 hrs, dose 50 mg/kg, route po; conditions: in vivo
[36] = Toxicity in BALB/c mouse assessed as changes in body weight at 1000 mg/kg, po administered once and observed for 10 days; format: organism-based; conditions: in vivo, 240 h, time 10 day
[37] = tested on: Toxoplasma gondii; experiment: Antiparasitic activity against Toxoplasma gondii RH infected in BALB/c mouse assessed as reduction of daughter tachyzoites in blood at 25 to 50 mg/kg, po administered for 5 days starting from 24 hrs post infection by real-time qPCR analysis; format: functional, organism-based; conditions: dose 25-50 mg/kg, time 5.0 day
[38] = Toxicity in BALB/c mouse assessed as changes in body weight at 25 to 50 mg/kg, po administered for 5 days and measured on day 1 and day 14; format: organism-based; conditions: in vivo, 120 h, dose 25-50 mg/kg, time 5 day
[39] = Cmax in BALB/c mouse serum at 25 mg/kg, po measured upto 60 mins by LC-MS/MS analysis; format: ADME, organism-based; set-up: dose 25 mg/kg, time < 60 min, route po; conditions: in vivo, 1 h
[40] = Toxicity in BALB/c mouse assessed as changes in liver weight at 50 mg/kg, po administered for 5 days and measured after 1 day; format: organism-based; conditions: in vivo, 120 h, time 5 day
[41] = Oral bioavailability in BALB/c mouse brain at 25 mg/kg measured upto 24 hrs by LC-MS/MS analysis; format: ADME, organism-based
[42] = Oral bioavailability in BALB/c mouse brain at 50 mg/kg measured upto 24 hrs by LC-MS/MS analysis; format: ADME, organism-based

Cc1nc[nH]c1C(=O)NNC(=S)Nc1cccc(I)c1
beta t1/2 [1]: 23.4 min | Activity [2]: Active | Activity [3]: Active | Activity [4]: Toxic | AUC at 24 h [5]: 69.9 ng·h/mL | Activity [6]: Non-Toxic | half-life [7]: 45.6 min | bioavailability [8]: 17% | survival at 50 mg/kg [9]: 20% | Tmax [10]: 15 min | beta t1/2 [11]: 24.6 min | Tmax [12]: 15 min | CC30 [13]: 213.27 µM | Tmax [14]: 15 min | Activity [15]: 16 | Activity [16]: Toxic | Activity [17]: Toxic | AUC [18]: 170390 ng·h/mL | Activity [19]: Non-Toxic | Tmax [20]: 30 min | Cmax [21]: 94.16 ng/mg | IC50 [22]: 25.7 µM | Activity [23]: Non-Toxic | AUC [24]: 150550 ng·h/mL | half-life [25]: 29.4 min | Cmax [26]: 35320 ng/mL | Activity [27]: Toxic | CC30 [28]: 209.45 µM | bioavailability [29]: 30.1% | AUC at 24 h [30]: 167 ng·h/mL | Activity [31]: Toxic | Activity [32]: Active | Activity [33]: Active | Activity [34]: Active | Cmax [35]: 174.33 ng/mg | Activity [36]: Non-Toxic | Activity [37]: Active | Activity [38]: Non-Toxic | Cmax [39]: 30850 ng/mL | Activity [40]: Non-Toxic | bioavailability [41]: 0.46% | bioavailability [42]: 0.98%
